From PMC9728198, “Characterization of Two Self-Sufficient Monooxygenases, CYP102A15 and CYP102A170, as Long-Chain Fatty Acid Hydroxylases” (Journal of Microbiology and Biotechnology, 2020)
“And” between values parts separate entries of the source, which are not always exact repeats. Equal values may be shown once. Read-outs that look alike come from different tables or passages of the source.

Experiments:
CYP102A15 [1] = molecular target: T1, CYP102A15 (Bacillus sp. (in: firmicutes), UniProt A0A2S1UG59); assay: NADPH consumption assay and kinetic parameters; conditions: for CE (coupling efficiency) / PFR (product formation rate) / Km: CYP102A15; for Km: read-out: Km (Michaelis–Menten constant)
Method: (§1) The NADPH consumption assay was performed at 340 nm. […] The total volume of the reaction was 250 μl. The obtained data were analyzed using GraphPad Prism software, and experiments were replicated at least three times.
(§2) Saturated fatty acids, unsaturated fatty acids and other cyclic compounds were the three main types of substrates used to determine the NADPH oxidation rate. […] The coupling efficiencies, product formation rates (PFR), and Michaelis–Menten constants (Km) of CYP102A15 and CYP102A170 were also investigated.

CYP102A15 [2] = molecular target: T1, CYP102A15; assay: Spectral substrate binding titration (low-spin to high-spin Soret shift)
Method: (§3) The binding affinity was evaluated by spectrometrically analyzing the enzyme binding of each substrate.
(§4) At the beginning, substrates were selected as fatty acids with different chain lengths and the unsaturation extent was tested for enzyme binding capacity. Substrate binding was observed by alternating from low-spin heme iron with a Soret band maximum at 419 nm in the UV-visible spectrum to high-spin heme iron with a Soret band maximum at 389 nm (Figs. 4, S3, and S4).

CYP102A170 [3] = molecular target: T2, CYP102A170 (Paenibacillus sp., UniProt A0A2U8SZJ5); assay: as above
Method: as §3, §4

CYP102A170 [4] = molecular target: T2, CYP102A170
Method: as §1, §2

CYP102A170 [5] = molecular target: T2, CYP102A170; assay: NADPH consumption assay and kinetic parameters; conditions: for Km: read-out: Km (Michaelis–Menten constant)
Method: as §1, §2
CCCCCCCCCCCCCC(=O)O = assay: purified protein, by the assay type
Method: as §1, §2

[6] = read-out: Kd (dissociation constant), CYP102A170, single-binding model for spectral change ΔA (A390–A420), 1 μM of protein
[7] = read-out: Kd (dissociation constant), CYP102A15, single-binding model for spectral change ΔA (A389–A419), 1 μM of protein

T2 sequence (A0A2U8SZJ5 1-1057 limits assumed): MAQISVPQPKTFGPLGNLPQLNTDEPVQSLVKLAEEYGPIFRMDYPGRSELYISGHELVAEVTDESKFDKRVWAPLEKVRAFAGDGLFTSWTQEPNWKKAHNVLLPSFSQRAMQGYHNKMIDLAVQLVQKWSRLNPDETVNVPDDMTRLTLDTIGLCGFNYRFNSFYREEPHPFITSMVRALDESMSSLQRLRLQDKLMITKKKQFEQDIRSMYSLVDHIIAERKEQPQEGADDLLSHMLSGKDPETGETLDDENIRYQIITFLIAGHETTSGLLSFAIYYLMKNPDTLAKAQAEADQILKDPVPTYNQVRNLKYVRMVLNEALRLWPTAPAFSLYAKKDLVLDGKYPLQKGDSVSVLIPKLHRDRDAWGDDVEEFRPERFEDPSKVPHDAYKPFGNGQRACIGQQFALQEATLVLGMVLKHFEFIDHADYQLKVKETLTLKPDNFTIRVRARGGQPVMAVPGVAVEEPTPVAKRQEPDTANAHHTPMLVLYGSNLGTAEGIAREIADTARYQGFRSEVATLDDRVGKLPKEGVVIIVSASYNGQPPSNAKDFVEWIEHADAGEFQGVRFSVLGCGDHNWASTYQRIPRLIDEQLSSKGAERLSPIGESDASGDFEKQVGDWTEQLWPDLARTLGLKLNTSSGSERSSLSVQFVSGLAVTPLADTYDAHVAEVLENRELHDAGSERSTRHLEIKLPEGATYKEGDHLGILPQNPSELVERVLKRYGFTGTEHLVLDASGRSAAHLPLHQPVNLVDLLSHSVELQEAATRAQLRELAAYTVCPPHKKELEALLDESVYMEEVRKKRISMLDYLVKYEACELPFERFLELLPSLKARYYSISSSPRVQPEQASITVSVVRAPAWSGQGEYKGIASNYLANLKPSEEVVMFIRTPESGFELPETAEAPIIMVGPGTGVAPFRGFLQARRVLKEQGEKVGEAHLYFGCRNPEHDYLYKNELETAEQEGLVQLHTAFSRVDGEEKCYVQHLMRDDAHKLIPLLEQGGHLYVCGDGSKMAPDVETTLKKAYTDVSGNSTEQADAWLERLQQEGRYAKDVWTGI
T1 sequence (A0A2S1UG59 1-1047): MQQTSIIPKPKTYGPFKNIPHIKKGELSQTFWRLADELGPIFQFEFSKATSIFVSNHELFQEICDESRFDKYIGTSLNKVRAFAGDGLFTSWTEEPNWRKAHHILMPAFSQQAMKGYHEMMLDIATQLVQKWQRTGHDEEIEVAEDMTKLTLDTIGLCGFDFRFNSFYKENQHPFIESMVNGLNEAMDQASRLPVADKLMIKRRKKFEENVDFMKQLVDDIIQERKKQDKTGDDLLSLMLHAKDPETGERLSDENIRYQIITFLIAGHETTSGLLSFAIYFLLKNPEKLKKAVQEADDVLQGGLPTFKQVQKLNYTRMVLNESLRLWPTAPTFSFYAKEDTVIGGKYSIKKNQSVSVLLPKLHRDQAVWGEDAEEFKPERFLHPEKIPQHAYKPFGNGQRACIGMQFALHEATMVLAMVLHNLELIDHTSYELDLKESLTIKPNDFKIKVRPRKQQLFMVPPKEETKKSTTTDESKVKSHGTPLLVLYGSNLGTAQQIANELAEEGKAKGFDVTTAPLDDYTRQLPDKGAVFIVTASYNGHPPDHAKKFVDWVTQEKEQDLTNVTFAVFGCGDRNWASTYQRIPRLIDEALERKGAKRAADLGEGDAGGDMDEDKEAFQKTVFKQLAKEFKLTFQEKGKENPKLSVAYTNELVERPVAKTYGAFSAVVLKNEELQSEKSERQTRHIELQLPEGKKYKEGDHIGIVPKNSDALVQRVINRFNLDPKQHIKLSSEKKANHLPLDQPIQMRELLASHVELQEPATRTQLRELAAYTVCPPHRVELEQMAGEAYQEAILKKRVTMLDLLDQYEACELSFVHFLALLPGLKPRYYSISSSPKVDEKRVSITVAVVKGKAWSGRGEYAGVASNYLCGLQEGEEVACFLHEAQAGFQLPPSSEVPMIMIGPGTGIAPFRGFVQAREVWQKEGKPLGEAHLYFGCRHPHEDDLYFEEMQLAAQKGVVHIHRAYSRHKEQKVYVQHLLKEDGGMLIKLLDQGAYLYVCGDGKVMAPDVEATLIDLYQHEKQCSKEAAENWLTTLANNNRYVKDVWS

| Compound | Kd (CYP102A15 [2]) [µM] | Kd (CYP102A170 [3]) [µM] | CE (coupling efficiency) (CYP102A15 [1]) [%] | PFR (product formation rate) (CYP102A15 [1]) [nmol/ nmol-P450/min] | also measured |
| --- | --- | --- | --- | --- | --- |
| CCOc1ccc2ccc(=O)oc2c1 [7-ethoxycoumarin] |  |  |  |  | NADPH consumption with cyclic compounds (in words) (CYP102A15 [1]; data not shown, sentence does not name the enzyme, b46 names CYP102A15): consumed the NADPH |
| CCCCC/C=C\C/C=C\C/C=C\C/C=C\CCCC(=O)O [Arachidonic acid] | 29.8 ± 1.8 |  |  |  |  |
| CC/C=C\C/C=C\C/C=C\C/C=C\C/C=C\CCCC(=O)O [Eicosapentaenoic acid] | 18.8 ± 3.8 | 1.3 ± 0.08 |  |  |  |
| CCCCCCCCCCCC(=O)O [Lauric acid] |  |  | 90 | 7.00 ± 0.10 | CE (coupling efficiency) (CYP102A170 [4]): 72%; Kd (CYP102A170 [3]; [6]): 6.46 ± 0.3 µM; Km (CYP102A15 [1]): 21.7 ± 3.6 µM; PFR (product formation rate) (CYP102A170 [5]): 31.68 ± 0.70 nmol/ nmol-P450/min; Km (CYP102A170 [5]): 13.4 ± 1.3 µM; Kd (CYP102A15 [2]; [7]): 7.78 ± 0.7 µM |
| CCCCC/C=C\C/C=C\CCCCCCCC(=O)O [Linoleic acid] | 13.9 ± 1.5 | 1.36 ± 0.23 | 68 | 2.70 ± 0.30 | Km (CYP102A15 [1]): 15.3 ± 4.7 µM |
| CCCCCCCCCCCCCCCCC(=O)O [Margaric acid] |  |  |  |  | Kd (CYP102A170 [3]; [6]): 2.83 ± 0.17 µM; NADPH consumption rate (CYP102A170 [5]; 250 μM NADPH, 200 μM fatty acid, 0.5–1 μM enzyme, 340 nm): 8.2 nmol/nmol-CYP/min; Kd (CYP102A15 [2]; [7]): 17.9 ± 1.21 µM |
| CCCCCCCCCCCCCC(=O)O [Myristic acid] | 14.9 ± 0.68 | 9.89 ± 0.39 | 80 | 35.91 ± 1.20 | CE (coupling efficiency) (CYP102A170 [5]): 67%; PFR (product formation rate) (CYP102A170 [5]): 37.52 ± 1.90 nmol/ nmol-P450/min |
| CCCCCCCC/C=C\CCCCCCCC(=O)O [Oleic acid] | 25.7 ± 2.8 | 2.23 ± 0.09 | 85 | 23.10 ± 5.30 | CE (coupling efficiency) (CYP102A170 [4]): 51%; Km (CYP102A15 [1]): 39.1 ± 6.9 µM; PFR (product formation rate) (CYP102A170 [5]): 41.50 ± 1.30 nmol/ nmol-P450/min; Km (CYP102A170 [5]): 430 ± 98 µM |
| CCCCCCCCCCCCCCCC(=O)O [Palmitic acid] | 11 ± 1.3 | 5.01 ± 0.23 |  |  |  |
| CCCCCCCCCCCCCCCCCC(=O)O [Stearic acid] |  | 3.37 ± 0.2 |  |  |  |
| CYP102A15 (Bacillus sp. (in: firmicutes)) |  |  |  |  | Km (CCCCCCCCCCCCCC(=O)O; other: CYP102A15): 386.10 ± 39.20 µM |
| CYP102A170 (Paenibacillus sp.) |  |  |  |  | Km (CCCCCCCCCCCCCC(=O)O; other: CYP102A170): 17.4 µM and 17.43 ± 1.80 µM |
